Experimental data: ChEMBL document CHEMBL6153100, “Controlins I-X, Resin Glycosides from the Seeds of Convolvulus tricolor and Their Biological Activities” (J Nat Prod, 2025)
The source made the active and inactive calls. The rule behind the calls is not given here.

Tests used:
PC-12 = test: Neuroprotective activity in H2O2-induced oxidative damage in rat PC12 cells assessed as increase in cell survival rate at 1 to 10 uM pre-incubated for 2 hrs followed by H2O2 addition and measured after 24 hrs by MTT assay; assay type: functional, cell-based; details: dose 1-10 µM, time 26.0 hrs
Caenorhabditis elegans = test: Anti-alzheimer activity in transgenic Caenorhabditis elegans UM0001 expressing Amyloid-beta/Tau assessed as decrease in dyskinesia measured for 30 mins by basal slowing response assay; assay type: functional, organism-based; details: dose 1-4 µM
BV-2 = test: Antineuroinflammatory activity in LPS-induced mouse BV-2 microglial cells assessed as inhibition of nitric oxide production incubated for 24 hrs by Griess reagent assay; assay type: functional, cell-based; details: BV-2, 24 h

Row | IC50 (BV-2) [µM] | Structure (SMILES) | Activity (PC-12) | Activity (Caenorhabditis elegans)
1 | – | C/C=C(\C)C(=O)OC[C@H]1O[C@@H](O[C@H]2[C@H](O)[C@@H](COC(=O)[C@H](C)[C@@H](C)O)O[C@@H](O[C@H]3[C@H](O[C@@H](CCCC)CCCCCCCCCCC(=O)OC)O[C@H](CO[C@@H]4O[C@@H](C)[C@H](O)[C@@H](O)[C@H]4O)[C@@H](O)[C@@H]3O)[C@@H]2O[C@@H]2O[C@@H](C)[C@H](OC(=O)[C@H](C)[C@@H](C)OC(=O)[C@H](C)[C@@H](C)O[C@@H]3O[C@H](C)[C@@H](O)[C@H](O)[C@H]3O)[C@@H](O[C@@H]3O[C@H](CO)[C@@H](O)[C@H](O)[C@H]3O)[C@H]2O)[C@H](O)[C@@H](O[C@@H]2O[C@H](CO)[C@@H](O)[C@H](O)[C@H]2O)[C@@H]1O | Active | Dose-dependent-effect
2 | 6.73 | C/C=C(\C)C(=O)OC[C@H]1O[C@@H](O[C@H]2[C@H](O)[C@@H](COC(=O)[C@H](C)[C@@H](C)O)O[C@@H](O[C@H]3[C@H](O[C@@H](CCCC)CCCCCCCCCCC(=O)OC)O[C@H](CO[C@@H]4O[C@H](C)[C@H](O)[C@H](O)[C@H]4O)[C@@H](O)[C@@H]3O)[C@@H]2O[C@@H]2O[C@@H](C)[C@H](OC(=O)[C@H](C)[C@@H](C)OC(=O)[C@H](C)[C@@H](C)O[C@@H]3O[C@H](C)[C@@H](O)[C@H](O)[C@H]3O)[C@@H](O[C@@H]3O[C@H](CO)[C@@H](O)[C@H](O)[C@H]3O)[C@H]2O)[C@H](O)[C@@H](O[C@@H]2O[C@H](CO)[C@@H](O)[C@H](O)[C@H]2O)[C@@H]1O | – | Dose-dependent-effect
3 | 9.7 | C/C=C(\C)C(=O)OC[C@H]1O[C@@H](O[C@H]2[C@H](O)[C@@H](CO)O[C@@H](O[C@H]3[C@H](O[C@@H](CCCC)CCCCCCCCCCC(=O)OC)O[C@H](CO[C@@H]4O[C@H](C)[C@H](O)[C@H](O)[C@H]4O)[C@@H](O)[C@@H]3O)[C@@H]2O[C@@H]2O[C@@H](C)[C@H](OC(=O)[C@H](C)[C@@H](C)OC(=O)[C@H](C)[C@@H](C)O[C@@H]3O[C@H](C)[C@@H](O)[C@H](O)[C@H]3O)[C@@H](O[C@@H]3O[C@H](CO)[C@@H](O)[C@H](O)[C@H]3O)[C@H]2O)[C@H](O)[C@@H](O)[C@@H]1O | – | –
4 | – | CCCC[C@@H](CCCCCCCCCCC(=O)C=O)O[C@@H]1O[C@H](CO[C@H]2O[C@H](C)[C@@H](O)[C@@H](O)[C@H]2O)[C@@H](O)[C@H](O)[C@H]1O[C@@H]1O[C@H](CO)[C@@H](O)[C@H](O[C@@H]2O[C@H](CO)[C@@H](O)[C@H](O)[C@H]2O)[C@H]1O[C@@H]1O[C@@H](C)[C@H](OC(=O)[C@H](C)[C@@H](C)OC(=O)[C@H](C)[C@@H](C)O[C@@H]2O[C@H](C)[C@@H](O)[C@H](O)[C@H]2O[C@@H]2O[C@H](CO)[C@@H](O)[C@H](O)[C@H]2O)[C@@H](O[C@@H]2O[C@H](CO)[C@@H](O)[C@H](O)[C@H]2O)[C@H]1O | Active | –
5 | 19.1 | C/C=C(\C)C(=O)OC[C@H]1O[C@@H](O[C@H]2[C@H](O)[C@@H](CO)O[C@@H](O[C@H]3[C@H](O[C@@H](CCCC)CCCCCCCCCCC(=O)OC)O[C@H](CO[C@@H]4O[C@H](C)[C@H](O)[C@H](O)[C@H]4O)[C@@H](O)[C@@H]3O)[C@@H]2O[C@@H]2O[C@@H](C)[C@H](OC(=O)[C@H](C)[C@@H](C)OC(=O)[C@H](C)[C@@H](C)O[C@@H]3O[C@H](C)[C@@H](O)[C@H](O)[C@H]3O)[C@@H](O[C@@H]3O[C@H](CO)[C@@H](O)[C@H](O)[C@H]3O)[C@H]2O)[C@H](O)[C@@H](O[C@@H]2O[C@H](CO)[C@@H](O)[C@H](O)[C@H]2O)[C@@H]1O | Active | –
